# In PubChem BioAssay (NCI):
#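 The concentration for 50% growth inhibition is given as GI50. TGI denotes the concentration required for complete inhibition of growth.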
# Experiments:
# Assay in all cases: DTP human tumour cell line panel, 384-well format
# COLO 205 colon = test system: COLO 205 colon
# SNB-19 CNS = test system: SNB-19 CNS
# MDA-MB-435 melanoma = test system: MDA-MB-435 melanoma
# OVCAR-4 ovarian = test system: OVCAR-4 ovarian
# BT-549 breast = test system: BT-549 breast
# HCT-116 colon = test system: HCT-116 colon
# SK-MEL-2 melanoma = test system: SK-MEL-2 melanoma
# UO-31 renal = test system: UO-31 renal
# UACC-257 melanoma = test system: UACC-257 melanoma
# HS 578T breast = test system: HS 578T breast
# SNB-75 CNS = test system: SNB-75 CNS
# LOX IMVI melanoma = test system: LOX IMVI melanoma
# NCI-H522 lung = test system: NCI-H522 lung
structure (smiles),measurement,setting,value
COC(=O)c1ccc([C@H]2c3[nH]c4ccccc4c3C[C@H](C(=O)OC)N2C(=O)CCl)cc1,GI50,COLO 205 colon,238 nM
same,TGI,COLO 205 colon,1150 nM
same,GI50,SNB-19 CNS,1300 nM
same,TGI,SNB-19 CNS,2590 nM
same,GI50,MDA-MB-435 melanoma,346 nM
same,TGI,MDA-MB-435 melanoma,1570 nM
same,GI50,OVCAR-4 ovarian,< 10 nM
same,TGI,OVCAR-4 ovarian,< 10 nM
same,GI50,BT-549 breast,120 nM
same,TGI,BT-549 breast,246 nM
same,GI50,HCT-116 colon,366 nM
same,TGI,HCT-116 colon,1450 nM
same,GI50,SK-MEL-2 melanoma,51.7 nM
same,TGI,SK-MEL-2 melanoma,185 nM
same,GI50,UO-31 renal,< 10 nM
same,TGI,UO-31 renal,< 10 nM
same,GI50,UACC-257 melanoma,86.8 nM
same,TGI,UACC-257 melanoma,336 nM
same,GI50,HS 578T breast,131 nM
same,TGI,HS 578T breast,311 nM
same,GI50,SNB-75 CNS,18.5 nM
same,TGI,SNB-75 CNS,41.4 nM
same,GI50,LOX IMVI melanoma,< 10 nM
same,TGI,LOX IMVI melanoma,< 10 nM
same,GI50,NCI-H522 lung,< 10 nM
same,TGI,NCI-H522 lung,< 10 nM
